Assays:
hPBMCs = test: Macrophage lineage in hPBMCs over 3, 7 and 10 days; format: cell-based, human; conditions: 100 μM
[1] = tested on: bronchoalveolar lavage fluid (BALf); test: Total protein (BCA) and TNF-α in lamb bronchoalveolar lavage fluid; format: in vivo
Excerpt: ELISA and BCA assay methods. BCA assay: The lamb BAL fluid samples (10d and 90d terminal studies) were centrifuged to remove the cell pellets, and the supernatant was used to assess the total protein using the Pierce™ BCA Protein Assay Kits, which were read using a BioTek synergy H1 microplate reader (Fisher Scientific, Toronto, ON, Canada).
(§1) ELISA: The serum and bronchoalveolar lavage (BAL) fluid samples were used to quantify cytokine and soluble CD163 (sCD163) concentrations. The ELISA experiment analysis used commercially available ELISA kits, which were quantified using a plate reader. The inventors used GraphPad Prism V. 10.4. All sheep (ovine) ELISA kits were used within the expiry dates. Ovine IL-1β(Cat #ELO-IL1β), and ovine IL-6 (Cat #ELO-IL6) ELISA kits were purchased from RayBiotech, Peachtree Corners, GA, USA, sheep IL-10 (Cat #E12817Sh-96) was purchased from Lifeome Biolabs, Oceanside, CA, sheep CD163 (cat #MBS9364870) was purchased from MyBioSource, Inc. San Diego, CA, and Pierce™ BCA Protein Assay Kit (Cat #23227) from Thermo Fischer Scientific, Rockford, IL.

mice [2] = test: Ovalbumin vaccination mouse model with CFA/IFA; format: in vivo; conditions: AVR-48 along with Ovalbumin±CFA/IFA, day 28
Procedure: Study Design: N=4/per group (Balbc/6J, 6-7 months old). Group-1: (OVA+CFA) 1st dose; (OVA+IFA) 2nd dose; OVA-3rd dose; Group 2: OVA+CFA+AVR-48 1st dose; OVA+IFA+AVR-48 2nd dose; OVA+AVR-48 3rd dose; and Group 3: OVA+IFA+AVR48 1st dose; OVA+IFA+AVR-48 2nd dose; OVA+AVR-48 3rd dose.
Outcome measures: Immune cell quantification (FACS) in the spleen and IgG in serum (ELISA).
In vivo study: In one study, C57Bl/6J mice (n=4/group) were dosed intramuscularly (IM) with either complete Freund's adjuvant (CFA) or incomplete Freund's adjuvant (IFA) along with AVR-48 for a 28-day study using a prime-boost-boost regimen. In the second study, mice were dosed with MPLA and Flu-peptide using only the priming dose regimen (no booster). Splenic immune cells and plasma immunoglobin concentrations were assessed at day 28.

mice [3] = test: AVR-48 pretreatment of mice followed by LPS, immune cell profile; format: in vivo, mouse; conditions: mice pretreated with AVR-48, in the presence of LPS
Excerpt: AVR-48 stimulated innate and adaptive immune response via (FIG. 25E) TNF-α increase and (FIG. 25F) CD3+, (FIG. 25G) CD4+, and (FIG. 25H) CD8+ T-cells, a necessary step in adaptive response and immune resolution. *p<0.05, **p<0.01, ***p<0.001; N=4, One-way ANOVA was used for analysis.

[4] = tested on: IL-1β, IL-6, IL-10 and soluble CD163 in lamb plasma; test: Plasma cytokine and soluble CD163 ELISA in lambs; format: in vivo; conditions: early-stage study, PT lambs vs vehicle
Excerpt: as §1

[5] = tested on: preterm lamb model of BPD; test: Survival and growth in mechanically ventilated preterm lamb BPD model; format: in vivo
Procedure: For dose-optimization, preterm (PT) lambs were delivered at ˜128d (d; saccular stage of lung development; ˜85% gestation) after maternal antenatal steroids exposure. […] After delivery and surfactant administration, PT lambs were maintained on invasive mechanical ventilation (IMV) for 7d followed by 3d noninvasive respiratory support. For the early-stage study, outcomes were determined for PT lambs over DOL1-10. For the late-stage study, outcomes were determined for former preterm (FPT) lambs (vehicle, AVR-48 treated) that were weaned from respiratory support after 10d and were maintained in the lamb intensive care unit for a further 80d. Outcomes included functional, structural, molecular, and neurobehavioral assessments. Term reference lambs that were never ventilated were used as developmental references for the FPT lambs.
Study timeline. FIGS. 1A and 1B show the timeline for the two-endpoint study using two groups of PT lambs. The first endpoint used PT lambs managed by IMV for 7d, followed by extubation to noninvasive respiratory support (NRS) for up to 3d of life (DOL7-10). At that time, terminal tissues were collected. The second endpoint used the same management protocol, followed by weaning the lambs from respiratory support and having them live in the lamb intensive care unit as former PT (FPT) lambs for 2 months corrected postnatal age (3 months chronological age, DOL 90). The rationale for the 2-month corrected postnatal age for FPT lambs is when sheep are weaned from milk, equivalent to about 12-18 months for humans. Methods for the FPT lamb model have been reported.^14,17
PT lamb model and methods for all outcome measures. Surgical preparation and management of lamb groups. Delivery and clinical management methods for PT lambs (6-8) and FPT lambs (3, 4). Briefly, time-pregnant ewes that had single or twin fetuses at ˜128d (˜85%) gestation (term ˜150d gestation) were used (main FIGS. 1A and 1B). The fetuses were exposed to antenatal steroids (dexamethasone) at ˜48 h and ˜24 h before Cesarean-section (exit-procedure) delivery. […]

[6] = tested on: preterm lamb model of BPD; test: Lung histopathology and quantitative histology of lamb lungs; format: in vivo; conditions: for radial alveolar count (RAC) / distal airspace wall thickness / secondary septal volume density: vs vehicle
Procedure: Terminal tissue collection. The inventors followed the methods the developed for terminal tissue collection.^14,17,26-28 Briefly, at the end of the early-stage study (DOL10) or late-stage study (DOL90 for FPT lambs; DOL60 for term reference lambs), the lambs were given ketamine (10-20 mg/Kg, intramuscularly) followed by face mask inhalation anesthesia with 1.0-2.5% isoflurane with O2. Lambs were intubated and ventilated with a tidal volume of 5-7 mL/kg, and given heparin (1000 U, iv). The lambs were given Beuthanasia solution (0.25 mL/Kg, iv; Intervet Inc., Madison, NJ) followed by potassium chloride (10 mEq, iv; Hospira, Lake Forest, IL).
For morphological analyses, the entire left lung was insufflated with formalin and sampled by systematic, uniform, random methods for quantitative histology.^29 Morphometric and stereologic methods quantified radial alveolar count, secondary septal volume density, and thickness of distal airspace walls.^27 Alveolar capillary growth was quantified by a combination of immunohistochemistry to identify endothelial cells in lung tissue sections and quantitative histology.^27 For capillary surface density measurement, a recombinant anti-CD-34 antibody was used (ab81289, Abcam; Waltham, MA) for the capillary endothelial cell marker. Negative immunostain controls were omission of the primary antibody, omission of the secondary antibody, and substitution of the primary antibody with a species-matched, irrelevant antibody. Epithelium lining the air spaces was counterstained blue. The inventors used a computer-assisted true-color imaging system (Bioquant Life Science, Nashville, TN) to quantify the surface density of alveolar capillaries and the overlying epithelium.

CC(=O)NC1C(Oc2ccc([N+](=O)[O-])cc2)OC(CO)C(O)C1O (stereo not drawn) [AVR-48]
macrophage lineage (hPBMCs; day 3 (IFN-γ high CD206 high)): highest % of intermediate macrophage
macrophage lineage (hPBMCs; day 7 (IFN-γ low CD206 high)): polarizing to M2 phenotype
macrophage lineage (hPBMCs; day 10 (IFN-γ high CD206 low)): finally to M1
total protein concentration in BALf ([1]; 10 days, PT lambs vs vehicle): decreased total protein concentration
total protein concentration in BALf ([1]; 90 days, FPT lambs): no difference was observed
TNF-α concentration in BALf ([1]; early and late-stage studies): No significant change
CD138+/CD38+/CD27+ plasma cells in mouse spleen (mice [2]): Increased
IgG in serum (mice [2]): Increased
CD3+ T-cells (mice [3]): stimulated
CD4+ T-cells (mice [3]): stimulated
CD8+ T-cells (mice [3]): stimulated
M1 macrophages (mice [3]): increased
Mint (intermediate) macrophages (mice [3]): increased
TNF-α (mice [3]): increase
plasma concentration of IL-1β ([4]; 6-10 h): significantly lower
plasma concentration of IL-6 ([4]; 72-75 h): significantly lower
plasma concentration of IL-10 ([4]; 138-150 h): significantly higher
survival ([5]; early-stage study, PT lambs): ~100%
survival ([5]; late-stage study d10-d90, FPT lambs, 3.0 mg/kg iv every 12 h DOL1-7): 80%
body weight ([5]; late-stage study, FPT AVR-48 lambs vs FPT vehicle lambs): significantly increased
radial alveolar count (RAC) ([6]; 10d, PT lambs, 3.0 mg/kg): significant increase
distal airspace wall thickness ([6]; 10d, PT lambs): significantly thinner
secondary septal volume density ([6]; 10d, PT lambs): significantly higher
radial alveolar count (RAC) ([6]; 90d, FPT lambs, 3.0 mg/kg): significant increase
distal airspace wall thickness ([6]; 90d, FPT lambs): thinner (but not statistically different)
secondary septal volume density ([6]; 90d, FPT lambs): higher in the AVR-48 lambs (but not statistically different)
development of terminal respiratory units (TRUs) ([6]; early-stage and late-stage studies, 3.0 mg/kg): significantly better development
